Measurements reported in the NIST ThermoML archive (doi:10.1016/j.jct.2017.02.009).

Test: xn = mol fraction of the nth substance listed
Conditions: 100 kPa, Liquid; for mass density: Vibrating tube method; for viscosity: Capillary tube (Ostwald / Ubbelohde) method

O=C1CCCO1 [γ-butyrolactone] + C[S+](C)[O-]
Conditions	mass density, 293.15 K [kg/m3]	mass density, 298.15 K [kg/m3]	mass density, 303.15 K [kg/m3]	mass density, 313.15 K [kg/m3]	viscosity, 298.15 K [mPa·s]
x2 = 0	1129.4	1124.5	1119.6	1109.8	1.72
x2 = 0.051	1127.5	1122.6	1117.7	1107.9	–
x2 = 0.098	1125.9	1121	1116.1	1106.3	1.724
x2 = 0.152	1124	1119.1	1114.2	1104.4	–
x2 = 0.221	1121.7	1116.8	1111.9	1102.1	1.724
x2 = 0.251	1120.7	1115.7	1110.8	1101	–
x2 = 0.298	1119.1	1114.2	1109.3	1099.5	1.724
x2 = 0.352	1117.4	1112.5	1107.6	1097.8	–
x2 = 0.398	1116	1111	1106.1	1096.3	1.739
x2 = 0.447	1114.5	1109.6	1104.7	1094.8	–
x2 = 0.498	1113	1108	1103.1	1093.3	1.763
x2 = 0.546	1111.6	1106.6	1101.7	1091.9	–
x2 = 0.596	1110.2	1105.2	1100.3	1090.4	1.791
x2 = 0.648	1108.7	1103.8	1098.8	1089	–
x2 = 0.7	1107.4	1102.4	1097.4	1087.6	1.839
x2 = 0.742	1106.3	1101.3	1096.4	1086.4	–
x2 = 0.797	1104.9	1099.9	1094.9	1085	1.883
x2 = 0.848	1103.6	1098.7	1093.7	1083.7	–
x2 = 0.9	1102.4	1097.4	1092.4	1082.5	1.921
x2 = 0.95	1101.3	1096.3	1091.3	1081.3	–
